Assay results as given in US5830868A, “Substituted DI- and tripeptide inhibitors of protein: farnesyl transferase” (Warner-Lambert Company, priority 1996, dated 1998).
Square brackets hold non-standard residues; d marks the D form. Peptide text beside a SMILES is read from it. * marks the point of attachment. Cbz = O=C(OCc1ccccc1)*; Bn = c1ccc(C*)cc1

Biological target: T1, rat brain farnesyl protein transferase (PFT) (Rattus norvegicus, UniProt Q02293+Q04631)
T1 construct: 40-fold purified rat brain farnesyl protein transferase; from tissue; host or cells: rat brain
Test: PFT inhibitory activity assay (radiolabeled farnesyl pyrophosphate, biotinyl peptide, streptavidin beads)
Type: biochemical
Settings: 40-fold purified rat brain enzyme; 0.12 μM [3H]FPP, 0.1 μM biotinyl-Ahe-Tyr-Lys-Cys-Val-Ile-Met; 37° C., 30 minutes; read-out: IC50 (μM) against PFT
Procedure: The PFT inhibitory activity of compounds of Formula I was assayed in 30 mM potassium phosphate buffer, pH 7.4, containing 7 mM DTT, 1.2 mM MgCl2, 0.1 mM leupeptin, 0.1 mM pepstatin and 0.2 mM phenylmethylsulfonyl fluoride. Assays were performed in 96 well plates (Wallec) and employed solutions composed of varying concentrations of a compound of Formula I in 100% DMSO. Upon addition of both substrates, radiolabeled farnesyl pyrophosphate ([1-^3 H], specific activity 15--30 Ci/mmol, final concentration 0.12 μM) and (biotinyl)-Ahe-Tyr-Lys-Cys-Val-Ile-Met peptide (final concentration 0.1 μM), the enzyme reaction was started by addition of 40-fold purified rat brain farnesyl protein transferase. After incubation at 37° C. for 30 minutes, the reaction was terminated by diluting the reaction 2.5-fold with a stop buffer containing 1.5M magnesium acetate, 0.2M H3 PO4, 0.5% BSA, and strepavidin beads (Amersham) at a concentration of 1.3 mg/mL. After allowing the plate to settle for 30 minutes at room temperature, radioactivity was quantitated on a microBeta counter (model 1450, Wallec). Compounds of Formula I show IC50 values of 0.5 nM to 80 μM (see data table) in this assay and are thus valuable inhibitors of protein: farnesyl transferase enzyme which may be used in the medical treatment of tissue proliferative diseases, including cancer and restenosis.

T1 sequence (Q02293 whole entry, one chain of several): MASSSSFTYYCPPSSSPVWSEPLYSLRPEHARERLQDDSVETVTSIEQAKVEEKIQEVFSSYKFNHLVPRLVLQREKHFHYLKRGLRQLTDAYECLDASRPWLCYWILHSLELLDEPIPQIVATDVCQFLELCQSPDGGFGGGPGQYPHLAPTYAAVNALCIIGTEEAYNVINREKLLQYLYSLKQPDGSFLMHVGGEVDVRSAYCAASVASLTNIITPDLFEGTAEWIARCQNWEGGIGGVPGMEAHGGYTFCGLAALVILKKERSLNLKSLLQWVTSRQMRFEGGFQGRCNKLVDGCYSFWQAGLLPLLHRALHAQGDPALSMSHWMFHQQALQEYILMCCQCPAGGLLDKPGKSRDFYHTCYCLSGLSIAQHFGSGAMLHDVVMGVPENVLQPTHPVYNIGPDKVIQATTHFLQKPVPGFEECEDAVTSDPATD

| Compound | IC50 |
| --- | --- |
| COC(=O)[C@H](COCc1ccccc1)NC(=O)C(C)(Cc1ccc(OCc2ccccc2)cc1)NC(=O)[C@H](Cc1c[nH]cn1)NC(=O)OCc1ccccc1 (mixture of isomers) [Example 10, N-[α-Methyl-N-[N-[(phenylmethoxy)carbonyl]-L-histidyl]-O-(phenylmethyl)-DL-tyrosyl]-O-(phenylmethyl)-L-serine. methyl ester] | 0.1 µM |
| CCOc1ccc(NC(=O)N[C@@H](Cc2cnc[nH]2)C(=O)N[C@H](Cc2ccc(OCc3ccccc3)cc2)C(=O)NCCCOc2ccccc2)cc1 (stereo in doubt) [Example 25, (S,R)-N-[2-(4-Benzyloxy-phenyl)-1-(3-phenoxy-propylcarbamoyl)-ethyl]-2-[3-(4-ethoxy-phenyl)-ureido]-3-(3H-imidazol-4-yl)-propionamide] | 3.7 µM |
| Cc1ccc(S(=O)(=O)N[C@@H](Cc2cnc[nH]2)C(=O)N[C@H](Cc2ccc(OCc3ccccc3)cc2)C(=O)N2CCN(Cc3ccccc3)CC2)cc1 (stereo in doubt) [Example 28, (S,R)-N-[1-(4-Benzyloxy-benzyl)-2-(4-benzyl-piperazin-1-yl)-2-oxo-ethyl]-3-(3H-imidazol-4-yl)-2-(toluene-4-sulfonylamino)-propionamide] | 11 µM |
| O=C(Nc1ccccc1)NC(Cc1c[nH]cn1)C(=O)NC(Cc1ccc(OCc2ccccc2)cc1)C(=O)NCCCOc1ccccc1 [5 (3), PhNHCO--D--His--Tyr(OBn)--CONHCH2 CH2 CH2 OPh] | 2.1 µM |
| CCCCNC(=O)NC(Cc1cnc[nH]1)C(=O)NC(Cc1ccc(OCc2ccccc2)cc1)C(=O)NCCCCc1ccccc1 [5 (4), BuNHCO--D--His--Tyr(OBn)--CONH(CH2)4 Ph] | 7.3 µM |
| O=C(N[C@H](Cc1c[nH]cn1)C(=O)N[C@@H](Cc1ccc(OCc2ccccc2)cc1)C(=O)NCCCOc1ccccc1)OCc1ccccc1 [5 (23), BnOCO--D--His--Tyr(OBn)CONHCH2 CH2 CH2 OPh] | 0.64 µM |
| COC(=O)C(CCSC)NC(=O)C(Cc1ccc(OCc2ccccc2)cc1)NC(=O)C(Cc1cnc[nH]1)NC(=O)NCCc1ccccc1 [5 (28), PhCH2 CH2 NHCO--D--His--Tyr(OBn)CONH--Met--CO2 Me] | 0.73 µM |
| O=C(Cc1ccccc1)N[C@H](Cc1c[nH]cn1)C(=O)N[C@@H](Cc1ccc(OCc2ccccc2)cc1)C(=O)N1CCN(Cc2ccccc2)CC1 [5 (30), PhCH2 CO--D--His--Tyr(OBn)CO(4-Bn-piperazin-1-yl)] | 73 µM |
| O=C(N[C@H](Cc1cnc[nH]1)C(=O)N[C@@H](Cc1ccc(OCc2ccccc2)cc1)C(=O)NCCc1ccccc1)N[C@@H]1C[C@H]1c1ccccc1 [5 (31), (t-2-Ph-c-propyl)-NHCO--D--His--Tyr(OBn)CONHCH2 CH2 Ph] | 0.76 µM |
| O=C(NC1CCCCC1)N[C@H](Cc1c[nH]cn1)C(=O)N[C@@H](Cc1ccc(OCc2ccccc2)cc1)C(=O)NCc1ccccc1 [5 (35), c-hexyl-NHCO--D--His--Tyr(OBn)CONHCH2 Ph] | 66 µM |
| O=C(CCc1ccccc1)N[C@H](Cc1c[nH]cn1)C(=O)N[C@@H](Cc1ccc(OCc2ccccc2)cc1)C(=O)NCCOCc1ccccc1 [5 (36), PhCH2 CH2 CO--D--His--Tyr(OBn)CONHCH2 CH2 OBn] | 1.9 µM |
| CC(C)NC(=O)NC(Cc1cnc[nH]1)C(=O)NC(Cc1ccc(OCc2ccccc2)cc1)C(=O)NCc1ccccc1 [5 (40), (CH3)2 CHNHCO--D--His--Tyr(OBn)CONHCH2 Ph] | 0.75 µM |
| O=C(Nc1ccc(Oc2ccccc2)cc1)NC(Cc1c[nH]cn1)C(=O)NC(Cc1ccc(OCc2ccccc2)cc1)C(=O)NCCc1ccccc1 [5 (46), (4-PhOPh)NHCO--D--His--Tyr(OBn)--CONHCH2 CH2 Ph] | 1 µM |
| COc1ccccc1CCCNC(=O)[C@H](Cc1ccc(OCc2ccccc2)cc1)NC(=O)[C@@H](Cc1c[nH]cn1)NS(=O)(=O)c1ccc(C)cc1 [5 (49), (4-MePh)SO2 --D--His--Tyr(OBn)--CONHCH2 CH2 CH2 --(2-MeO--Ph)] | 2.9 µM |
| O=C(NCc1ccccc1)N[C@H](Cc1c[nH]cn1)C(=O)N[C@@H](Cc1ccc(OCc2ccccc2)cc1)C(=O)NOCc1ccccc1 [5 (52), BnNHCO--D--His--Tyr(OBn)CONHOBn] | 1.6 µM |
| O=C(Nc1cccc2ccccc12)N[C@H](Cc1c[nH]cn1)C(=O)N[C@@H](Cc1ccc(OCc2ccccc2)cc1)C(=O)NCCOCc1ccccc1 [5 (56), 1-napthyl-NHCO--D--His--Tyr(OBn)CONHCH2 CH2 OBn] | 1.1 µM |

| Compound | IC50 |
| --- | --- |
| O=C(Nc1cccc2ccccc12)N[C@H](Cc1c[nH]cn1)C(=O)N[C@@H](Cc1ccc(OCc2ccccc2)cc1)C(=O)NCCCCc1ccccc1 [5 (59), 1-napthyl-NHCO--D--His--Tyr(OBn)CONHCH2 CH2 CH2 CH2 Ph] | 20 µM |
| O=C(Nc1cccc2ccccc12)N[C@H](Cc1c[nH]cn1)C(=O)N[C@@H](Cc1ccc(OCc2ccccc2)cc1)C(=O)NCc1ccccc1 [5 (60), 1-napthyl-NHCO--D--His--Tyr(OBn)CONHCH2 Ph] | 1.4 µM |
| CCOc1ccc(NC(=O)N[C@H](Cc2c[nH]cn2)C(=O)N[C@@H](Cc2ccc(OCc3ccccc3)cc2)C(=O)NCCOCc2ccccc2)cc1 [5 (61), (4-EtOPh)NHCO--D--His--Tyr(OBn)CONHCH2 CH2 OBn] | 7.2 µM |
| O=C(NC(Cc1cnc[nH]1)C(=O)NC(Cc1ccc(OCc2ccccc2)cc1)C(=O)NCCSCc1ccccc1)OCc1ccccc1 [5 (62), BnOCO--D--His--Tyr(OBn)CONHCH2 CH2 SBn] | 1.5 µM |
| CCOc1ccc(NC(=O)NC(Cc2cnc[nH]2)C(=O)NC(Cc2ccc(OCc3ccccc3)cc2)C(=O)NCCCOc2ccccc2)cc1 (centres unmarked) [5 (63), (4-EtOPh)NHCO--His--Tyr(OBn)CONHCH2 CH2 CH2 OPh] | 1 µM |
| O=C(NC(Cc1c[nH]cn1)C(=O)NC(Cc1ccc(OCc2ccccc2)cc1)C(=O)NCCCCc1ccccc1)OCc1ccccc1 [5 (64), BnOCO--D--His--Tyr(OBn)CONHCH2 CH2 CH2 CH2 Ph] | 1.7 µM |
| COc1ccccc1CCCNC(=O)C(Cc1ccc(OCc2ccccc2)cc1)NC(=O)C(Cc1c[nH]cn1)NC(=O)Cc1ccccc1 [5 (69), PhCH2 CO--D--His--Tyr(OBn)CONH(CH2)3 --(2-MeO--Ph)] | 0.48 µM |
| CC(C)NC(=O)N[C@H](Cc1c[nH]cn1)C(=O)N[C@@H](Cc1ccc(OCc2ccccc2)cc1)C(=O)NCCCCc1ccccc1 [5 (79), (CH3)2 CHNHCO--D--His--Tyr(OBn)CONHCH2 CH2 CH2 CH2 Ph] | 3 µM |
| O=C(CCc1ccccc1)NC(Cc1c[nH]cn1)C(=O)NC(Cc1ccc(OCc2ccccc2)cc1)C(=O)NCc1ccccc1 [5 (80), PhCH2 CH2 CO--D--His--Tyr(OBn)CONHCH2 Ph] | 1.6 µM |
| NC(=O)[C@H](COCc1ccccc1)NC(=O)[C@H](Cc1ccc(OCc2ccccc2)cc1)NC(=O)[C@H](Cc1c[nH]cn1)NC(=O)OCc1ccccc1 [Example 1, Nα -[N-[N-[(Phenylmethoxy)carbonyl]-L-histidyl]-O-(phenylmethyl)-L-tyrosyl]-O-(phenylmethyl)-L-serinamide] (Cbz-His-Tyr(Bn)-Ser(Bn)-NH2) | 4.4 µM |
| O=C(NCc1ccccc1)N[C@@H](Cc1c[nH]cn1)C(=O)N[C@@H](Cc1ccc(OCc2ccccc2)cc1)C(=O)NCCCOc1ccccc1 [Example 4] | 1 µM |
| COC(=O)[C@H](COCc1ccccc1)NC(=O)[C@H](Cc1ccc(OCc2ccccc2)cc1)NC(=O)[C@H](Cc1c[nH]cn1)NC(=O)OCc1ccccc1 [Example 6, N-[N-[N-[(Phenylmethoxy)carbonyl]-L-histidyl]-O-(phenylmethyl)-L-tyrosyl]-O-(phenylmethyl)-L-serine, methyl ester] (Cbz-His-Tyr(Bn)-Ser(Bn)-OMe) | 0.42 µM |
| O=C(N[C@@H](Cc1c[nH]cn1)C(=O)N[C@@H](Cc1ccc(OCc2ccccc2)cc1)C(=O)N[C@@H](COCc1ccccc1)C(=O)O)OCc1ccccc1 [Example 7, N-[N-[N-[(Phenylmethoxy)carbonyl]-L-histidyl]-O-(phenylmethyl)-L-tyrosyl]-O-(phenylmethyl)-L-serine] (Cbz-His-Tyr(Bn)-Ser(Bn)-OH) | 0.26 µM |
| COC(=O)[C@H](COCc1ccccc1)NC(=O)[C@H](Cc1ccc(OCc2ccccc2)cc1)NC(=O)[C@@H](Cc1c[nH]cn1)NC(=O)OCc1ccccc1 [Example 8, N-[N-[N-[(Phenylmethoxy)carbonyl]-D-histidyl]-O-(phenylmethyl)-L-tyrosyl]-O-(phenylmethyl)-L-serine, methyl ester] (Cbz-[dH]-Tyr(Bn)-Ser(Bn)-OMe) | 0.074 µM |
| COC(=O)[C@@H](COCc1ccccc1)NC(=O)[C@H](Cc1ccc(OCc2ccccc2)cc1)NC(=O)[C@H](Cc1c[nH]cn1)NC(=O)OCc1ccccc1 [Example 9, N-[N-[N-[(Phenylmethoxy)carbonyl]-L-histidyl]-O-(phenylmethyl)-L-tyrosyl]-O-(phenylmethyl)-D-serine, methyl ester] (Cbz-His-Tyr(Bn)-[dS](Bn)-OMe) | 0.27 µM |
| CCNC(=O)[C@H](COCc1ccccc1)NC(=O)[C@H](Cc1ccc(OCc2ccccc2)cc1)NC(=O)[C@H](Cc1c[nH]cn1)NC(=O)OCc1ccccc1 [Example 11, N-Ethyl-Nα -[N-[N-[(phenylmethoxy)carbonyl]-L-histidyl]-O-(phenylmethyl)-L-tyrosyl]-O-(phenylmethyl)-L-serinamide] (Cbz-His-Tyr(Bn)-Ser(Bn)-NHEt) | 0.17 µM |
